What was measured:
[1] = system: DBA/1 LacJ mice, collagen induced arthritis; test: Murine collagen induced arthritis; format: in vivo; details: 30 mg/kg q.d. oral gavage for two weeks beginning on day 27, female DBA/1 LacJ mice
Procedure: Bovine type II collagen (University of Utah) was diluted with 0.01N acetic acid to a concentration of 2 mg/mL and emulsified with an equal volume of Freund's complete adjuvant (Difco, Detroit, Mich.) supplemented with 1 mg/mL Mycobacterium tuberculosis Hra37. Age-matched (8-12 weeks) female DBA/1 LacJ mice (Jackson Laboratories, Bar Harbor, Me.) were immunized with 100 μL of emulsion (100 μg collagen) intradermally at the base of the tail. On Day 28 after immunization, the mice were given 50 μg Lipopolysaccharide (Sigma Aldrich, St Louis, Mo.) intraperitoneally (IP) in 100 μL saline. The compound of Example 1 (4-Cycloheptyloxy-2-morpholin-4-yl-pyrimidine-5-carboxylic acid (2H-tetrazol-5-yl)-amide) was dosed at 30 mg/kg q.d. by oral gavage for two weeks beginning on day 27. The development of arthritis was assessed on Days 27, 31, 34, 37, and 41. A clinical score was given to each limb using the following scale: (0) normal, (1) erythema and edema, (2) joint distortion, (3) joint ankylosis. Edema measurements on front paws, rear paws, and ankles were taken using constant tension calipers (Dyer, Lancaster, Pa.). The compound of Example 1 at 30 mg/kg q.d. inhibited paw edema in this model by 52%, and clinical score by 35%.

[2] = system: Lewis rats, streptococcal cell wall-induced paw edema; test: SCW streptococcal cell wall-induced paw edema; format: in vivo; details: 10, 30 and 100 mg/kg q.d. oral gavage for four days beginning on day 21, female Lewis rats
Procedure: Female Lewis rats (˜150 g) received 6 μg SCW in 10 μl Dulbecco's PBS by an intraarticular injection to the right tibiotalar joint on day 0. On day 21, the recurrence response was initiated with 100 μg SCW (250 μl, i.v.). Vehicle (0.5% hydroxypropylmethylcellulose/0.2% Tween 80) or the compound of Example 1 (4-Cycloheptyloxy-2-morpholin-4-yl-pyrimidine-5-carboxylic acid (2H-tetrazol-5-yl)-amide) was given orally (10 ml/kg volume), q.d., 1 hr prior to SCW, i.v., and on subsequent days. Baseline volumes of the sensitized hind paw were measured by a mercury displacement plethysmometer before disease initiation on day 21, and subtracted from subsequent assessments (made 24 hrs after each dose) to determine the Δ value (the difference between paw volume prior to disease initiation on day 21 and the paw volume 24 hours after each dose). The compound of Example 1 was dosed at 10, 30 and 100 mg/kg q.d. by oral gavage for four days beginning on day 21.

[3] = molecular target: T1, p101/p110γ protein (PI3Kγ) (Homo sapiens, UniProt P48736); test: PI3Kγ in vitro kinase assay; format: biochemical; details: purified recombinant p101/p110γ with G protein β1/γ2 subunits, 20 μM ATP, PIP2 lipid micelles
T1 construct: HA; made in house; host or cells: Spodoptera frugiperda (Sf9) cells, baculovirus co-infection
T1 sequence (P48736 whole entry, species assumed): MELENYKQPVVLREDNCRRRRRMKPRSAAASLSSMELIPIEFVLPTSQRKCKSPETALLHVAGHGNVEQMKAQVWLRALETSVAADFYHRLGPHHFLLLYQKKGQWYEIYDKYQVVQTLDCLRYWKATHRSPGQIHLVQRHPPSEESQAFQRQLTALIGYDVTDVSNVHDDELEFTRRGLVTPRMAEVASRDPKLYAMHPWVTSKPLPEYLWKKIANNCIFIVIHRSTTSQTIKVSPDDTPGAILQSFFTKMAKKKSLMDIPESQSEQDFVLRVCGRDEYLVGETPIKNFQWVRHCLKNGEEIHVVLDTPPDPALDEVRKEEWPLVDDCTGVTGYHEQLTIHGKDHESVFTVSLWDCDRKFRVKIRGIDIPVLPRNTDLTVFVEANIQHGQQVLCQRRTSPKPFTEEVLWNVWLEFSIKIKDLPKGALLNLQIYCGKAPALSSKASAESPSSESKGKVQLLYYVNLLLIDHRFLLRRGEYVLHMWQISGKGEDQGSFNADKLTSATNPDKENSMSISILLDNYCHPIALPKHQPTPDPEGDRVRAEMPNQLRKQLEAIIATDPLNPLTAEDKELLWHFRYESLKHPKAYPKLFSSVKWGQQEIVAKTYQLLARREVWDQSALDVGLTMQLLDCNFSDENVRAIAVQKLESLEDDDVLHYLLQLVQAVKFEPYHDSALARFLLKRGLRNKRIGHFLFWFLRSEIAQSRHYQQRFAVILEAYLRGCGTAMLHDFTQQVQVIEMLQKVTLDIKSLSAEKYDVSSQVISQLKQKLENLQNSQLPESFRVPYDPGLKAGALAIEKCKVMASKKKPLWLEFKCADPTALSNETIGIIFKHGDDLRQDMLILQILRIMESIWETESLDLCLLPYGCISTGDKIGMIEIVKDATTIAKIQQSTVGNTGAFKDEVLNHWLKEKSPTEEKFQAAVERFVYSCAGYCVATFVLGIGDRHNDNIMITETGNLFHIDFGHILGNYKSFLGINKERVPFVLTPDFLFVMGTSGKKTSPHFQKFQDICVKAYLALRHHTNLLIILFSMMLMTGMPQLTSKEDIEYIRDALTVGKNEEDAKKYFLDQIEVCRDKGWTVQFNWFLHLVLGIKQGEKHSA
T1 sequence (Q8WYR1 whole entry partner, species assumed): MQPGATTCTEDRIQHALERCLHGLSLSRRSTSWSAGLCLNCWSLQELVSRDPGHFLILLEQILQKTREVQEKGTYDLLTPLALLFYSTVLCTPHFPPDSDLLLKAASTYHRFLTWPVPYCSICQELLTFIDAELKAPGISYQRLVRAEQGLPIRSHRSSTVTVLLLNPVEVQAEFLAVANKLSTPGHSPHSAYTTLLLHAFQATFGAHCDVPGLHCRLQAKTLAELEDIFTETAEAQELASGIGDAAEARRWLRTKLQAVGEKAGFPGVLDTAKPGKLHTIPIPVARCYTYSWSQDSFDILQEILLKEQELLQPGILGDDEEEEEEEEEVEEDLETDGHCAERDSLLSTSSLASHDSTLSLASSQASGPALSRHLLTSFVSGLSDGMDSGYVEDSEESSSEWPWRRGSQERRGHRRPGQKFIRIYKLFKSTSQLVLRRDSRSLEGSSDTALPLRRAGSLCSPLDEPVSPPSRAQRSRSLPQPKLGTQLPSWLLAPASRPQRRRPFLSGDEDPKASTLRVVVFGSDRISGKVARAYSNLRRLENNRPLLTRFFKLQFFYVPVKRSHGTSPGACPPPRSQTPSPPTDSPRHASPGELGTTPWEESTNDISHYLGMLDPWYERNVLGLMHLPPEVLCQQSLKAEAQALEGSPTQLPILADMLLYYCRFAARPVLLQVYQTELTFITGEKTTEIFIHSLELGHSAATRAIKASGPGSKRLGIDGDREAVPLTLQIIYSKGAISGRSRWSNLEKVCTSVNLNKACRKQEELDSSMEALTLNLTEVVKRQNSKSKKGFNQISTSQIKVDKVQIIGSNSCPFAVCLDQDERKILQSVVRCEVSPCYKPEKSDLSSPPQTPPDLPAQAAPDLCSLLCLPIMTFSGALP
Procedure: Spodtera frugiperda cells, grown in ESF921 media, were co-infected with baculovirus expressing a glu-tagged p101 and baculovirus expressing an HA-tagged p110γ, at a 3:1 ratio of p101 baculovirus to p110γ baculovirus. Sf9 cells were grown to 1×10^7 total cells/mL in 10 L bioreactors and harvested 48-72 hours post infection. Samples of infected cells were then tested for expression of p101/p110γ PI3 kinase by immunoprecipitation and Western Blot analysis methods (see below).
To purify PI3Kγ, 4 volumes of room temperature hypotonic lysis buffer (1 mM MgCl2, 1 mM DTT, 5 mM EGTA, 1 mM Pefabloc, 0.5 μM aprotinin, 5 μM leupeptin, 2 μM pepstatin, 5 μM E64, pH 8) per gram of cell paste, was poured onto frozen cell pellets with stirring, then lysed in a nitrogen “bomb” at 400 psi (599HC T316, Parr Instrument Co, Moline, Ill.). NaCl was added to 150 mM, and sodium cholate was added to 1% and mixed for another 45 minutes. The lysates were clarified by centrifugation for 25 minutes at 14,000 rpm. The lysates were then loaded over anti-glu-linked Protein-G Sepaharose beads (Covance Research Products, Richmond, Calif.) using 20 mL resin/50 g cell paste. The column was washed with 15 volumes of wash buffer (1 mM DTT, 0.2 mM EGTA, 1 mM Pefabloc, 0.5 μM aprotinin, 5 μM leupeptin, 2 μM pepstatin, 5 μM E64, 150 mM NaCl, 1% sodium cholate, pH 8). PI3Kγ was eluted with 6 column volumes of wash buffer that contain 100 μg/mL of a peptide that competes for binding of the glu tag. The column fractions with the eluted protein (determined by taking OD280 readings) were collected and dialyzed in 0.2 mM EGTA, 1 mM DTT, 1 mM Pefabloc, 5 μM leupeptin, 0.5% sodium cholate, 150 mM NaCl, and 50% glycerol, pH 8. The fractions were stored at −80° C. until further use.
Spodtera frugiperda cells were coinfected with baculovirus expressing a glu-tagged G protein β1 and baculovirus expressing a G protein […], at a 1:1 ratio of glu-tagged G protein […] baculovirus to G protein β2 baculovirus. Sf9 cells are grown in 10 L bioreactors and harvested 48-72 hours post infection. Samples of infected cells were tested for G protein β1/β2 expression by Western Blot analysis, as described below. Cell lysates were homogenized and loaded onto a column of glu-tagged beads as in Biological Example 1 and competed off the column with a glu peptide and processed as described in Biological Example 1.
The inhibitory properties of the compounds in Table 1 were assayed in an in vitro PI3K assay. In a 96-well polypropylene plate, each well was spotted with 2 μL of 50 times the desired final concentration of compound in DMSO. Purified recombinant p101/p110γ protein (0.03 μg; ˜2.7 nM) and G protein β1/γ2 subunits (0.09 μg; ˜57.7 nM) for each reaction was combined in the assay buffer (30 mM HEPES, 100 mM NaCl, 1 mM EGTA, and 1 mM DTT). ATP and [γ-^32P-ATP] (0.09 μCi) were added to this mixture so that the final ATP concentration in the reaction was 20 μM. Lipid micelles were formed by sonicating phosphatidylinositol-4,5-diphosphate (PIP2), phosphatidylethanolamine (PE), and Na-cholate in the assay buffer for 10 minutes, adding MgCl2 and incubating on ice for 20 minutes, for final concentrations of 25 μM PIP2, 300 μM PE, 0.02% Na-cholate, and 10 mM MgCl2 in the reaction. The reactions were started by adding equal volumes lipid and enzyme mixture in a total volume of 50 μL, allowed to run for 20 minutes at room temperature, and stopped with 100 μL 75 mM H3PO4. The lipid product was transferred to a glass fiber filter plate and washed with 75 mM H3PO4 several times. The presence of radioactive lipid product (PIP3) was measured by adding Wallac Optiphase mix to each well and counting in a Wallac 1450 Trilux plate reader (PerkinElmer Life Sciences Inc., Boston, Mass. 02118). The IC50 for each compound tested is reported in μM in the Tables above.

With `O=C(Nc1nn[nH]n1)c1cnc(N2CCOCC2)nc1OC1CCCCCC1` [Example 1, 4-Cycloheptyloxy-2-morpholin-4-yl-pyrimidine-5-carboxylic acid (2H-tetrazol-5-yl)-amide] the “inhibition of clinical score” value [1] was 35%, the “inhibition of paw edema” value [1] was 52% and the “ID50 for inhibition of paw edema” value [2] was 16.3 mg/kg. The IC50 [3] was 197 nM.

— patent US20090227587A1, “Pyrimidines as inhibitors of phosphoinositide-3-kinases (PI3K)” (Warner-Lambert Company LLC, priority 2003, published 2009)
